This passage reports IC50 results from ChEMBL document CHEMBL1201862, “PubChem BioAssay data set” (2004).

The IC50 is the concentration at which inhibition is half-maximal.

The assay concerns the target Envelope glycoprotein gp160 (Human immunodeficiency virus 1, UniProt Q6QLK5). The assay can be described thus: cell-free HIV fusion peptide-binding blockers – biochemical, uHTS, fluorescence dequenching, […] (AID 1986).

Activity calls are given as the source filed them. Rule as the data show it: actives have a measured IC50 and inactives only a lower limit.

Chain of Envelope glycoprotein gp160 (Q6QLK5 whole entry, the tested form may be a part): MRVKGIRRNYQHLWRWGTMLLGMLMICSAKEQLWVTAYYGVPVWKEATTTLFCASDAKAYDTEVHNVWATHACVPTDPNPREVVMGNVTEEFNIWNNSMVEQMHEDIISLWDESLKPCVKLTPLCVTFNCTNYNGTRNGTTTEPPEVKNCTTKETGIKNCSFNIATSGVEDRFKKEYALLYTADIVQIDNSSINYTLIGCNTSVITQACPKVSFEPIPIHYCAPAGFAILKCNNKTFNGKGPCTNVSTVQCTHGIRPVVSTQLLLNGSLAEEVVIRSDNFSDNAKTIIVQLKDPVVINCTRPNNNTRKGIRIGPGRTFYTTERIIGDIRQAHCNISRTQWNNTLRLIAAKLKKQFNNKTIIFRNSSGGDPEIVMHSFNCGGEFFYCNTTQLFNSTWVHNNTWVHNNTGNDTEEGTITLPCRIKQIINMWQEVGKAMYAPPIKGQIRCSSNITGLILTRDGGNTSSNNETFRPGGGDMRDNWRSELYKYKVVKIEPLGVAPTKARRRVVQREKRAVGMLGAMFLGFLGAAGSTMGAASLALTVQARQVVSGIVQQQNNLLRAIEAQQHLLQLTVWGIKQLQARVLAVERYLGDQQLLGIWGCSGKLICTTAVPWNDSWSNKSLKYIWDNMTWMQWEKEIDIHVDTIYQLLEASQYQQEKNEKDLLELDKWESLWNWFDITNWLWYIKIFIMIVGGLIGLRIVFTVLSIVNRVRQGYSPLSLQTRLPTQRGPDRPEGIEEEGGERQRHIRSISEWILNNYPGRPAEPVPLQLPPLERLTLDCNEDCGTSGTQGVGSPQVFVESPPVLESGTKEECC

`CCOc1cc(/C=C2/C(=N)N3C(=NC2=O)SN=C3S(=O)(=O)CC)ccc1OC(=O)c1ccco1`: the IC50 is 19.3 µM (active).
